# Data: publication PMC10552892, “Ebselen oxide and derivatives are new allosteric HER2 inhibitors for HER2‐positive cancers” (Molecular Oncology, 2023)
# Assays:
# [1] = molecular target: T1, gD-HER2-WT (Homo sapiens, UniProt P04626); experiment: Western blot of HBMECs overexpressing gD-HER2-WT; assay type: cell-based; details: 5 μM, 24 h
# T1 construct: expressed in transfected cells; host or cells: HBMEC (human bone marrow endothelial cells)
# Method: Human bone marrow endothelial cells (HBMECs) kindly provided by Dr. B. Weksler (Weill Medical College of Cornell University, NY) were cultured as described previously. The human breast cancer cell lines [SKBR3 (RRID:CVCL_0033), BT474 (RRID:CVCL_0179), and MDA‐MB‐231 (RRID:CVCL_0062)], the human gastric [NCI‐87 (RRID:CVCL_1603)] and ovarian [SKOV3 (RRID:CVCL_0532)] cancer cell lines were obtained from the American Type Culture Collection (Manassas, VA) and were maintained in DMEM containing 10% FBS. All cell lines were cultured under 5% CO2 at 37 °C. HBMECs were transfected using Amaxa Inc nucleofector system (Kit V and U015 program). FBS was decreased to 1% to analyze HER2 activation status and HER2‐dependent cell proliferation in SKOV3 as previously described. Periodic tests for Mycoplasma and authentication were performed using commercially available kits.
# [2] = test system: BT474 cells implanted in the mammary fat pad; experiment: Tumor growth in orthotopic BT474 xenograft in immunodeficient mice; assay type: in vivo; details: for Tumor size increase between day 19 and day 40: 5 days a week, vehicle 172%
# Text: Experiments were done as already described on the TrGET platform of centre de Recherche de Cancérologie de Marseille (Institut Paoli Calmettes, Marseille, France) in accordance with the guidelines of the Institut National de la Santé et de la Recherche Médicale. The study was approved by the Animal Experimentation Ethics Committee of Marseille (APAFIS#2079‐2015092811101360 v3). Briefly, 7‐to‐8‐week‐old female NOD.Cg‐Prkdc scid/J (NSG) mice were purchased from Charles River France or bred in‐house and maintained on a 12‐h light and 12‐h dark cycle, under specific pathogen‐free conditions with sterilized food and water provided ad libitum. The initial body weight of the animals at the time of arrival was between 19 and 24 g. Mice were allowed to acclimatize to local conditions for 1 week before being injected with tumor cells. 5 × 10^6 BT474 cells resuspended in 100 μL (50% matrigel and 50% PBS) were implanted orthotopically in the mammary fat pad of NSG mice anesthetized with ketamine and xylazine and administered with the nonsteroidal anti‐inflammatory drug metacam (SC, 1 mg·kg^−1). Estradiol pellets were implanted subcutaneously. Metacam was administered 24 and 48 h postimplantation. Nineteen days after implantation, mice were randomized into […] to be administered intraperitoneally during 3 weeks with vehicle (10% DMSO in PBS, twice a day, 5 days a week, n = 8), 3 mg·kg^−1 ebselen oxide (twice a day, 5 days a week, n = 8), or […] ebselen oxide (twice a day, 5 days a week, n = 8). Mice weight and tumor volume were assessed 2–3 times a week using a caliper. At the end of the experiment, the collected tumors were photographed, weighed, and cut into halves to be embedded in OCT for immunohistofluorescence analysis or frozen in liquid nitrogen for western blot analysis.
# The collected tumors embedded in OCT were cut into 5 μm thick sections and immobilized on superfrost™ plus microscope slides. Sections were fixed in 4% paraformaldehyde for 10 min at room temperature, washed three times in PBS, permeabilized for 10 min in PBS containing 0.1% Triton X100, washed with PBS, blocked for 30 min in PBS containing 3% BSA and incubated 1 h at room temperature with primary antibodies [Monoclonal anti‐HER2 (clone Cle2‐4001 and 3B5, IF‐1 : 100) or polyclonal anti‐KI67 (ref PA5‐16785, IF‐1 : 200)]. Sections were again washed three times in PBS and incubated 1 h at room temperature with fluorescence‐conjugated secondary antibodies from Jackson Immunoresearch Laboratories. After mounting, samples were scanned using a Lamina multilabel slide scanner (PerkinElmer). The proliferative index (mean percentage of Ki67‐positive nuclei) was quantified on 10 regions (area 0.2 mm^2) per slide (vehicle, n = 7; ebselen oxide n = 5) using IMAGEJ software.
# We then explored the potential of ebselen oxide to reduce the growth of HER2‐overexpressing tumors in vivo. Nineteen days after orthotopic implantation of BT474 cells in the mammary fat pad of immunodeficient […] mice, mice received 3 or 5 mg·kg^−1 ebselen oxide, intraperitoneally (once or twice a day, as indicated, 5 days a week) or vehicle as a control. […] Conversely, in animals treated with 5 mg·kg^−1 ebselen oxide, it increased only by 44% in mice treated with 5 mg·kg^−1 ebselen oxide, corresponding to a significant growth inhibition index of 75% at day 40 (Fig. 5C–E). […] Of note, there was an excellent correlation between tumor volume and tumor weight (R ^2 = 0.9611, Fig. 5H). […] We next analyzed biochemically the intratumoral level of activated HER2 and downstream signaling in vehicle‐ and 5 mg·kg^−1 ebselen oxide‐treated mice.
# [3] = molecular target: p95HER2 (Homo sapiens, UniProt P04626); experiment: Activation of gD-tagged p95HER2 in HBMECs, western blot; details: 5–10 μM, 24 h
# p95HER2, sequence (P04626 611-1255 limits assumed): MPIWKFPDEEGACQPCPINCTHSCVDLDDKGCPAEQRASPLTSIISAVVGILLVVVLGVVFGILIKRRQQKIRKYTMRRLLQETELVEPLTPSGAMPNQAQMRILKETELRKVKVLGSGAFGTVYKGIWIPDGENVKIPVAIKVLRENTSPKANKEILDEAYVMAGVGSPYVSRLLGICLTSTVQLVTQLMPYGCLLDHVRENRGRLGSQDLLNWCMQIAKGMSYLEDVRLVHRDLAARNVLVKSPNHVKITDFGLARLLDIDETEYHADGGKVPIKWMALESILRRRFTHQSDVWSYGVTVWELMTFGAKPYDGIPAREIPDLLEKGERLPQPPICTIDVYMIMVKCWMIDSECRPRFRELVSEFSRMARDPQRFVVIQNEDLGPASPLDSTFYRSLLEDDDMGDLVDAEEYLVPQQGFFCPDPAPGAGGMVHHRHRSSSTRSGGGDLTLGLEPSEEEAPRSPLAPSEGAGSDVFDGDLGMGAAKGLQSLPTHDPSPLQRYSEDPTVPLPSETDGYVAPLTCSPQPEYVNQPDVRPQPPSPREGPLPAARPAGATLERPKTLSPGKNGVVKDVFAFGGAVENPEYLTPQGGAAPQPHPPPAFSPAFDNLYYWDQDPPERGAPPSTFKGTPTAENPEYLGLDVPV
# Method: Cells were washed with cold PBS and lysed in a buffer containing 1% Triton, 50 mM Tris–HCl pH 8.8, 25 mM NaCl, 1 mM EDTA, 1 mM Na3VO4, 1 mM AEBSF, 10 μg·mL^−1 each of aprotinin/leupeptin/pepstatin or lysed in Laemmli buffer. Proteins were separated by SDS/PAGE and transferred to nitrocellulose (Schleicher & Schuell, Keene, NH, USA). Membranes were blocked for 1 h in TBS/0.1% Tween20/3% BSA and probed overnight with indicated antibodies. Peroxidase‐coupled secondary antibodies were used to reveal antibody binding using the ECL substrate (Pierce, Thermo Fisher Scientific, Waltham, MA, USA) and Fusion FX (Vilber Lourmat, Collégien, France) chemoluminescence acquisition system. Quantifications were done with IMAGEJ software (1.53e) (NIH, USA).
# Vector encoding wild‐type glycoprotein D‐tagged form of HER2 (gD‐HER2‐WT) [18] was a kind gift of Dr M. Sliwkowski (Genentech, San Francisco, CA, USA). […] Vector encoding the HER2p95 [19] was provided by Dr J. Baselga.
# (A–C) Lysates were then analyzed by western blot using antibodies against pY1248 HER2 and HER2. Representative blot and data quantification (mean ± SEM) are shown out of 3 (A), 3 (B), or 4 (C) independent experiments. One‐way ANOVA followed by Dunnett's multiple comparison test, *P < 0.05, **P < 0.01, ***P < 0.001.
# [4] = molecular target: T2, HER2 in heterodimers with EGFR/HER1 (Homo sapiens, UniProt P04626); experiment: Ligand-dependent HER2 activation in HBMECs upon EGF stimulation (western blot); assay type: cell-based; details: 10 μM, 50 ng/ml EGF 5 min
# T2 construct: in noncancer cells expressing normal levels of HER2; endogenous in cells; host or cells: HBMEC
# T2 sequence (P04626 23-1255, one chain of several): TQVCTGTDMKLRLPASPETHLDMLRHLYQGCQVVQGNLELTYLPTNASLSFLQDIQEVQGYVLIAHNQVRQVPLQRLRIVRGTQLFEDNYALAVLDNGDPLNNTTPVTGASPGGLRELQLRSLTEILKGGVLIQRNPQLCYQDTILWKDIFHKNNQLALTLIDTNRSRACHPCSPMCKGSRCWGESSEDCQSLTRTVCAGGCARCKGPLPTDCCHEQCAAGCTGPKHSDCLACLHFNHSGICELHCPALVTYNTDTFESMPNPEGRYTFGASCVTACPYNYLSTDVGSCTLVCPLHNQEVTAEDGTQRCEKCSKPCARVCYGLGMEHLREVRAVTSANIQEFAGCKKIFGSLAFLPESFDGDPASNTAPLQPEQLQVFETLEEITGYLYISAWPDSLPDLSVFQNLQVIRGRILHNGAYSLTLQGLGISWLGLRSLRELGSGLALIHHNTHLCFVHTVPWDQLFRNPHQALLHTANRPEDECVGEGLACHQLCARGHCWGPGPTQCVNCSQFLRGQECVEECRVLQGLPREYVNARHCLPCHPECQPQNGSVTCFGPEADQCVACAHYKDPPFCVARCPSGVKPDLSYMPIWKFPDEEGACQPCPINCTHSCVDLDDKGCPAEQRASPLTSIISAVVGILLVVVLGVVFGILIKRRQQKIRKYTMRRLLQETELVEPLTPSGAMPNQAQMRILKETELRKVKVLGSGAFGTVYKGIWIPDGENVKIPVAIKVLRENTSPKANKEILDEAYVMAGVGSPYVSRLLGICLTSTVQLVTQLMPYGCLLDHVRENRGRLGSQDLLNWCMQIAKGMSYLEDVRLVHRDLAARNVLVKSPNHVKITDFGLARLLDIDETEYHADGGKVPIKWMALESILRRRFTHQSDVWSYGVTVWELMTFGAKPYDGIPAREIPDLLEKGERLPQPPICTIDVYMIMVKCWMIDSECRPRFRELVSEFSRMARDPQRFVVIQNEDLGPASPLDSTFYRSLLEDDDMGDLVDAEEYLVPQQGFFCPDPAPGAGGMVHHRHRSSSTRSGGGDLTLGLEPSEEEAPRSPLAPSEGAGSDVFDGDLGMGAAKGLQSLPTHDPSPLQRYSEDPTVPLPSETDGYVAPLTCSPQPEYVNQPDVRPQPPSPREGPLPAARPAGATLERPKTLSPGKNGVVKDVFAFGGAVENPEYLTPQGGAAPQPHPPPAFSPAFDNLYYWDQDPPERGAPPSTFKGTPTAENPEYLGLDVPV
# [5] = molecular target: T3, HER2 in heterodimers with HER3 (Homo sapiens, UniProt P04626); experiment: Ligand-dependent HER2 activation in HBMECs upon HRG stimulation (western blot); assay type: cell-based; details: 10 μM, 100 ng/ml Heregulin-1β 5 min
# T3 construct: in noncancer cells expressing normal levels of HER2; endogenous in cells; host or cells: HBMEC
# T3 sequence (P04626 23-1255, one chain of several): as above
# T1 sequence (P04626 23-1255): as the sequence (P04626 23-1255, one chain of several) above
structure (smiles),measurement,setting,value
"O=C1c2ccccc2[Se](=O)N1c1ccccc1 (centres unmarked) [Ebselen oxide, ebselen oxide]",Reduction of phosphorylation level of gD-HER2-WT,[1]; HBMEC,40%
same,Reduction in the activation of ERK protein kinase,[1]; HBMEC gD-HER2-WT,65%
same,Tumor size increase between day 19 and day 40,[2]; 3 mg·kg−1 i.p.,112%
same,Reduction in tumor size and weight compared to vehicle,"[2]; 3 mg·kg−1 i.p., day 40",only a little reduction
same,Drop of tumor proliferation index (Ki67) vs vehicle,"[2]; 5 mg·kg−1, immunofluorescence on tumor sections",32%
same,Decrease of HER2 activation in tumor lysates vs vehicle,"[2]; 5 mg·kg−1, western blot",30%
same,Inhibition of Akt activation in tumor lysates,"[2]; 5 mg·kg−1, western blot",50%
same,Inhibition of ERK activation in tumor lysates,"[2]; 5 mg·kg−1, western blot",45%
same,Tumor size increase between day 19 and day 40,[2]; 5 mg·kg−1 i.p.,44%
same,Growth inhibition index,"[2]; 5 mg·kg−1 i.p., day 40",75%
same,Drop in tumor weight compared to vehicle-treated group,"[2]; 5 mg·kg−1 i.p., tumors collected at day 40",40%
same,Mice body weight after day 30,"[2]; 3 and 5 mg·kg−1, recovered after reduction from two to one injection per day",decrease of mice body weight
same,Tolerability (mice body weight),[2]; 3 and 5 mg·kg−1 i.p. twice a day,well‐tolerated until day 30
same,Decrease in the mammary tumor volume (discussion),"[2]; mouse model, ebselen oxide administration",40%
same,Inhibition of p95HER2 activation,[3],strongly inhibited
same,Physiological activation of HER2 in heterodimers and downstream AKT and ERK activation upon EGF,[4],did not alter
same,Physiological activation of HER2 in heterodimers and downstream AKT and ERK activation upon HRG,[5],did not alter
